Results reported in patent US8496945B2, “Nanoparticle delivery systems for membrane-integrating peptides” (priority 2007, dated 2013).
Values joined by “and” are separate entries in the source; they are usually repeats but may differ in a detail not shown here. Equal values may be shown once.

How the values were obtained:
C-32 melanoma cells [1] = assay: Lactate dehydrogenase release assay; format: cell-based; conditions: 1 hour at 37° C., 0.1% triton-X 100 = 100%
Protocol: Lactate dehydrogenase (LDH) is a stable enzyme that is rapidly released from the cells upon plasma membrane damage. The lactate dehydrogenase release assay kit was obtained from BioVision (Mountain View, Calif.) and the assay performed according to manufacturers instructions. Briefly, C-32 melanoma cells were either treated with free melittin or melittin-nanoparticles at various concentrations for 1 hour at 37° C. and the amount of lactate dehydrogenase released quantified. Cells treated with 0.1% triton-X 100 were taken as 100% release.

[2] = Surface plasmon resonance kinetics of melittin insertion in lipid monolayers (Biacore L1 chip); format: binding; conditions: melittin 15 to 1,000 nM
Protocol: The kinetics of melittin insertion in lipid monolayers of perfluorocarbon nanoparticles was studied by surface plasmon resonance (SPR). SPR detects change in the reflective index of a surface. Biacore-X biosensor and carboxy methylated dextran chip L1 were obtained from Biacore, Inc (Piscataway, N.J.). All solutions were degassed and filtered through a 0.22 μm membrane as recommended. A uniform lipid monolayer on an L1 chip was created by injecting 35 μl PFOB nanoparticles (3 μl/min). Loosely deposited nanoparticles were removed by first increasing the flow rate to […] for 2 min followed by an injection of NaOH (50 μl, 10 mM) to ensure a stable baseline. Complete coverage was confirmed by injecting the negative control bovine serum albumin (25 μl, […] in PBS). Melittin in various concentrations was then injected at a flow rate of 30 μl/min (30 μl in PBS; 15 nM to 1000 nM) and the response recorded for 60 minutes. At the end of each experiment the chip was regenerated by two consecutive injections of 3-[(3-cholamidopropyl)dimethylammonio]-1-propanesulfonate (CHAPS) (50 μl, 100 μl/min). A series of sensorgrams was generated for the selected melittin concentrations. The data were analyzed globally by simultaneously fitting the peptide sensorgrams obtained at various concentrations using the BIAevaluation™ software (Biacore, Inc, Piscataway, N.J.). […]

C-32 melanoma cells [3] = assay: Cell proliferation inhibition (MTT) assay; format: cell-based; conditions: 3 hours treatment, then 72 hours
Protocol: The effect of αvβ3-targeted melittin-nanoparticles on C-32 cancer cell proliferation was determined by the 3-[4,5-dimethylthiazol-2-yl]2,5-diphenyltetrazolium bromide (MTT) assay. The assay measures the activity of a mitochondrial enzyme that converts MTT, a tetrazolium salt, into a formazan crystal that absorbs at 570 nm.
(§1) C-32 melanoma cells were seeded in 96-well plates at a seeding density of 5,000 cells/well. After overnight incubation at 37° C., the cells were treated with free melittin, αvβ3-targeted or nontargeted melittin nanoparticles at various concentrations. At the end of 3 hours of incubation at 37° C., the cells were washed three times with PBS and incubated at 37° C. for a period of 72 hours. Then the medium was aspirated, and the cells rinsed with phosphate buffered saline (PBS) and 20 μl MTT solution (Sigma-Aldrich, St. Louis, Mo., final concentration 5 mg/ml in PBS) was added to each well. Cells were further incubated at 37° C. for 30 min, solubilized in 200 μl DMSO to dissolve the precipitated formazan and the absorbance read on a microplate reader (Biorad, Model 550) at 570 nm. Background absorbencies were subtracted and untreated control cells were set at 100% viability.

C-32 melanoma cells [4] = assay: Cytochrome c release assay; format: cell-based
Protocol: Cytochrome c is a water-soluble 15 kDa protein residing in the mitochondrial intermembrane space and is released early during apoptosis. To determine if melittin-loaded nanodroplets trigger release of cytochrome c, C-32 melanoma cells were treated with varying concentrations of melittin-nanoparticles for 1 hour at 37° C. following which the mitochondria were isolated by using the Mitochondrial Isolation Kit (Pierce Biotechnology, Rockford, Ill.). The cytochrome c present in the mitochondrial and cytosol fractions thus obtained was assayed by using the cytochrome c ELISA kit (Invitrogen, Carlsbad, Calif.).

red cells = assay: Hemolysis assay; format: cell-based, Human; conditions: 5×10^7 red cells, 37° C., 3 hours; read-out: IC50 (concentration that causes 50% hemolysis)
Protocol: Human umbilical cord blood was obtained from healthy donors after informed consent. The red cells were separated by centrifugation at 200 g for 10 min and resuspended in normal saline. Various concentrations of melittin or melittin-carrying nanoparticles were added to a fixed number of red cells (5×10^7 cells) and incubated at 37° C. for 3 hours. The release of hemoglobin was quantified by measuring the absorbance at 540 nm of the supernatant in a Microplate Reader (Model 550, BioRad) after centrifugation. The absorbance of the supernatant obtained by incubating the red cells in water under identical conditions was set to 100%.

[5] = test system: cholesterol-depleted C-32 Melanoma cells; assay: Effect of cholesterol depletion on cell death (MTT assay); format: cell-based; conditions: 0.25 mM and 0.5 mM, no melittin
Protocol: as §1
The role of cholesterol in modulating the melittin activity on the cell membrane was assessed by depleting cells of cholesterol before the cell proliferation assay and flow cytometry (as described above). […] To quantify the amount of cholesterol depleted by methyl beta cyclodextrin, total lipids were extracted from melanoma cells by standard procedure. […] The total cholesterol content in the cells was determined by using the Amplex® Red Cholesterol Assay kit (Sigma, St. Louis, Mo.). […]

C-32 melanoma cells [6] = assay: Cholesterol depletion, Amplex Red Cholesterol Assay; format: cell-based; conditions: 15 min at 37° C.
Protocol: The role of cholesterol in modulating the melittin activity on the cell membrane was assessed by depleting cells of cholesterol before the cell proliferation assay and flow cytometry (as described above). C-32 Melanoma cells were treated with either 0.25 mM or 0.5 mM methyl beta cyclodextrin (Sigma, St. Louis, Mo.) for 15 min at 37° C. to deplete cholesterol. To quantify the amount of cholesterol depleted by methyl beta cyclodextrin, total lipids were extracted from melanoma cells by standard procedure. Briefly, 10^6 C-32 melanoma cells grown in 6-well tissue culture plates were scraped by a rubber policeman and the pellet obtained post-centrifugation was treated with 200 μl chloroform-methanol (2:1). After spinning top speed in a microcentrifuge, the organic phase was collected and vacuum dried. The dried lipids were then dissolved in 20 μl of 2-propanol containing 10% triton-X 100 as assay samples. The total cholesterol content in the cells was determined by using the Amplex® Red Cholesterol Assay kit (Sigma, St. Louis, Mo.). Cholesterol standard was used for calibration as per manufacturer's recommendations.

Compound	LDH release (C-32 melanoma cells [1]; 1 μM)	LDH release (C-32 melanoma cells [1]; 5 μM)	association rate constant (ka) [2]	IC50 (C-32 melanoma cells [3])	release of cytochrome c from the mitochondria (C-32 melanoma cells [4]; 1 hour at 37° C., varying concentrations)	cytochrome c release (C-32 melanoma cells [4]; at the higher concentrations)	IC50 (red cells)	cell proliferation [5]	depletion of cholesterol (C-32 melanoma cells [6]; 0.25 mM)	depletion of cholesterol (C-32 melanoma cells [6]; 0.5 mM)
CC[C@H](C)[C@H](NC(=O)CN)C(=O)NCC(=O)N[C@@H](C)C(=O)N[C@H](C(=O)N[C@@H](CC(C)C)C(=O)N[C@@H](CCCCN)C(=O)N[C@H](C(=O)N[C@@H](CC(C)C)C(=O)N[C@H](C(=O)N[C@H](C(=O)NCC(=O)N[C@@H](CC(C)C)C(=O)N1CCC[C@H]1C(=O)N[C@@H](C)C(=O)N[C@@H](CC(C)C)C(=O)N[C@H](C(=O)N[C@@H](CO)C(=O)N[C@@H](Cc1c[nH]c2ccccc12)C(=O)N[C@H](C(=O)N[C@@H](CCCCN)C(=O)N[C@@H](CCCNC(=N)N)C(=O)N[C@@H](CCCCN)C(=O)N[C@@H](CCCNC(=N)N)C(=O)N[C@@H](CCC(N)=O)C(=O)N[C@@H](CCC(N)=O)C(N)=O)[C@@H](C)CC)[C@@H](C)CC)[C@@H](C)O)[C@@H](C)O)C(C)C)C(C)C [free melittin, melittin]	19.17 (±4.2) percent	68.14 (±7.1) percent and 68.14±4.3%	4.5±0.35×10^6 (Ms)^−1	930 ± 80 nM	dose-dependent release	55.48±6.1%	510 ± 120 nM	–	–	–
methyl beta cyclodextrin	–	–	–	–	–	–	–	no change in cell proliferation	7%	12%
